Data taken from PMC10208956, “Microbial peptides activate tumour-infiltrating lymphocytes in glioblastoma” (Nature, 2023).

Tests used:
TCC2D3 = settings: 3 h
TCC88 [1] = experiment: Cytokine and chemokine secretion of TCC88 after peptide stimulation; format: cell-based, human; settings: TCC88 supernatant after peptide stimulation; no peptide control subtracted; Fig. 3e
Text: Fig. 3 Bacteria-derived and microbiota-derived peptides can stimulate TCC88 as well as the tumour antigen. a, Peptides with the highest predicted stimulatory scores were identified by searching various databases (see Methods). Numbers of unique 10-mer peptides within each database, synthesized peptides, TCC88 stimulatory peptides and the corresponding percentage of stimulatory peptides within each database are shown. […] Cytokine and chemokine secretion of TCC88 was examined and compared upon stimulation with these three different antigens. A specific amount of each cytokine and chemokine (pg ml^−1) was calculated by subtracting the cytokines in the negative control cultures (no peptide control). f, Cytotoxicity of TCC88 against the autologous tumour cell line after stimulation with 2 µM of SIN3A* and HGM3 (data represent the mean percentage of two replicate wells). E:T, effector to target. g, TCC88 was tested with HGM3 (10 µM) or SIN3A* (10 µM) peptides or both together (each 10 µM), and ^3H-thymidine incorporation was measured after 3 days (data represent the mean SI value of three replicate wells ± s.e.m.). Also see Extended Data Figs. 3 and 4. Source data
(§1) Supernatants from each experiment were harvested a day before adding thymidine and frozen at −20 °C. Cytokines were measured using ELISA for human IFNγ ELISA MAX (BioLegend), human GM-CSF DuoSet ELISA (R&D Systems) and bead-based assays. A Synergy H1 hybrid multi-mode reader (Agilent) was used to measure the absorbance. The LEGENDplex Multi-analyte Flow Assay kit (BioLegend) is a 13-plex human TH cytokine panel, which includes IFNγ, TNF, IL-2, IL-4, IL-5, IL-6, IL-9, IL-10, IL-13, IL-17A, IL-17F, IL-21 and IL-22. […] LSR Fortessa Flow Cytometer (BD Biosciences) was used to measure cytokines, and data were analysed using FlowJo (Tree Star). The Human XL Cytokine Luminex Performance Assay Fixed Panel (R&D Systems) contains 45 analytes covering a broad range of various chemokines and cytokines.

TCC75 = experiment: Cytokine/chemokine secretion of TCC75; format: cell-based, human; settings: 3 days; Extended Data Fig. 5e
[2] = tested on: sorted CD4+ PE and FITC TCRVβ+ TILs; experiment: Proliferation of TCRBV-sorted CD4+ TILs (without TCRBV6.1 and TCRBV6.2); format: cell-based, human; settings: sheet 6b
Text: TILs expressing specific TCRBVs were isolated from bulk TILs using a panel of 22 fluorescently labelled TCRBV antibodies that detect 27 different TCRBVs. Twelve TCRBV antibodies were labelled with PE and 10 with FITC (Beckman Coulter). […] After another wash, cells were stained with CD4 (1:100) (APC anti-human CD4, eBioscience), CD8 (1:100) (Pacific blue anti-human CD8, BioLegend), TCRBV-PE (1:25) (Beckman Coulter) and TCRBV-FITC (1:25) (Beckman Coulter) antibodies (Supplementary Table 12) for 30 min. Finally, cells were sorted, seeded at 5 × 10^4 cells per well in T cell medium without h-IL-2 and rested for 1 day before stimulation with 2 × 10^5 cells per well of irradiated autologous PBMCs (45 Gy) and peptide (10 µM).
Two populations of CD4^+ PE-TCRVβ^+ and CD4^+ FITC-TCRVβ^+ were sorted and later mixed together. […] Specific amount of each cytokine/chemokine (pg/ml) was calculated by subtracting the cytokines in the negative control cultures (no peptide control). Source data

[3] = tested on: bulk TILs (patient 1635WI); experiment: Cytokine and chemokine secretion of bulk TILs stimulated with IPdBPs; format: cell-based, human; set-up: key to CD40 Ligand / Flt-3 Ligand / GM-CSF / Granzyme B / IFN-α / IFN-γ / IL-1rα / IL-1α / IL-1β / IL-2 / IL-3 / IL-4 / IL-5 / IL-6 / IL-7 / IL-10 / IL-12p70 / IL-13 / IL-15 / IL-17A / IL-33 / TNF-α / RANTES: pg/mL, negative-control amount subtracted; CXCL2/GROβ / CXCL10/IP-10 / CCL2/MCP-1 / CCL3/MIP-1α / CCL4/MIP-1β: unit not given beside the values; settings: secretion by bulk TILs after peptide stimulation; sheet 1e
Text: Fig. 1 Elution of HLA class II-presented bacterial peptides from 19 glioblastomas and the stimulatory effect of IPdBPs on bulk TILs. a, Schematic of the immunopeptidome analyses of glioblastoma tissue, from which eluted peptides were annotated using the UniProt bacteria database (1). TILs or peripheral memory T cells were stimulated with IPdBPs (2 and 3). LC–MS, liquid chromatography–mass spectrometry; PBMC, peripheral blood mononuclear cell. The images in panel a were created using BioRender (https://biorender.com). b, Number of unique IPdBPs in patients with glioblastoma (n = 19) (data from patient 1635WI contains both primary and recurrent tumours together), with 344 unique IPdBPs identified (left). These peptides originated from 255 and 199 unique proteins and bacteria, respectively (3 technical replicates). […] As a control, peptidome data were also annotated using human protein database to identify eluted self-peptides. As shown, most of HLA class II-bound peptides are self-(human) peptides. IPdBPs of primary (bottom left, n = 18) and recurrent (bottom right, n = 23) tumours were separately annotated to their source bacteria at the phylum level. d, Bulk TILs (patient 1635WI) were stimulated with IPdBPs (See Supplementary Table 8), each in five replicate wells, and proliferation was measured after 5 days via ^3H-thymidine incorporation. […] The data are expressed as the mean value of all wells ± s.e.m. SIN3A* peptide was used as a positive control as TILs recognize this tumour antigen. T cells with APCs without any stimuli were used as a negative control. e, Heatmap of cytokine and chemokine secretion of TILs stimulated with three IPdBPs, which weakly stimulated proliferation. The secretion of each cytokine and chemokine was calculated by subtracting the corresponding cytokine and chemokine amount (pg ml^−1) of the negative control. TILs with APCs without any stimuli were used as a negative control. Also see Extended Data Fig. 1. Source data
as §1

TCC88 [4] = settings: BLS-DRB3*02:02 as APCs; 3 days; SI ≥ 2 positive

Substance: Ac-SNGDLDAIVVARAGLA-NH2 [Pep-bac16]
- SI: TCC2D3 (TCC2D3): 2.2

Substance: Ac-AVVTQPDK-NH2 [Pep-bac9]
- SI: TCC2D3 (TCC2D3): 2.5

Substance: LIVFNHNCLK [HB84, UniProt bacteria database peptide]
- CCL20/MIP-3α (TCC88 [1]): 8.75 pg/mL
- CD40 Ligand (TCC88 [1]): 1473.06 pg/mL
- CXCL1/GROα (TCC88 [1]): 73.57 pg/mL
- CXCL2/GROβ (TCC88 [1]): 49.19 pg/mL
- CXCL8/IL-8 (TCC88 [1]): 0 pg/mL
- CXCL10/IP-10 (TCC88 [1]): 104.46 pg/mL
- Flt-3 Ligand (TCC88 [1]): 100.29 pg/mL
- Fractalkine (TCC88 [1]): 347.74 pg/mL
- GM-CSF (TCC88 [1]): 5082.78 pg/mL
- Granzyme B (TCC88 [1]): 2479.01 pg/mL
- IFN-α (TCC88 [1]): 2.75 pg/mL
- IFN-γ (TCC88 [1]): 910.88 pg/mL
- IL-1rα (TCC88 [1]): 520.19 pg/mL
- IL-1α (TCC88 [1]): 12.29 pg/mL
- IL-1β (TCC88 [1]): 17.01 pg/mL
- IL-2 (TCC88 [1]): 167.02 pg/mL
- IL-3 (TCC88 [1]): 131.91 pg/mL
- IL-4 (TCC88 [1]): 71.31 pg/mL
- IL-5 (TCC88 [1]): 29.89 pg/mL
- IL-6 (TCC88 [1]): 102.19 pg/mL
- IL-7 (TCC88 [1]): 0.74 pg/mL
- IL-10 (TCC88 [1]): 2358.6 pg/mL
- IL-12p70 (TCC88 [1]): 19.71 pg/mL
- IL-13 (TCC88 [1]): 1338.92 pg/mL
- IL-15 (TCC88 [1]): 2.33 pg/mL
- IL-17A (TCC88 [1]): 1.97 pg/mL
- IL-17E/IL-25 (TCC88 [1]): 0 pg/mL
- IL-33 (TCC88 [1]): 15.02 pg/mL
- TNF-α (TCC88 [1]): 3267.52 pg/mL

Substance: Ac-VWEFNHSLHP-NH2 [HGM27]
- cytokine and chemokine profile of TCC75 (in words) (TCC75): secretes pro-inflammatory cytokines
- Proliferation (SI) of sorted CD4+ TILs ([2]; replicate 1): 2.099
- Proliferation (SI) of sorted CD4+ TILs ([2]; replicate 2): 2.919
- Proliferation (SI) of sorted CD4+ TILs ([2]; replicate 3): 2.416

Substance: VFAIDRAGLVGEDGPT [Peptidome.Bac 5]
- CCL2/MCP-1 [3]: 40.48
- CCL3/MIP-1α [3]: 7.07
- CCL4/MIP-1β [3]: 0
- CCL11/Eotaxin [3]: 0
- CCL19/MIP-3β [3]: 0
- CCL20/MIP-3α [3]: 0
- CD40 Ligand [3]: 0
- CXCL1/GROα [3]: 0
- CXCL2/GROβ [3]: 5.86
- CXCL8/IL-8 [3]: 0
- CXCL10/IP-10 [3]: 62.72
- Flt-3 Ligand [3]: 1.13
- GM-CSF [3]: 16.51
- Granzyme B [3]: 0
- IFN-α [3]: 0
- IFN-γ [3]: 0
- IL-1rα [3]: 212.62
- IL-1α [3]: 0
- IL-1β [3]: 0
- IL-2 [3]: 0
- IL-3 [3]: 0
- IL-4 [3]: 0
- IL-5 [3]: 0
- IL-6 [3]: 8.61
- IL-7 [3]: 0.34
- IL-10 [3]: 0
- IL-12p70 [3]: 0
- IL-13 [3]: 16.57
- IL-15 [3]: 0
- IL-17A [3]: 0
- IL-17E/IL-25 [3]: 0
- IL-33 [3]: 0
- RANTES [3]: 0
- TNF-α [3]: 24.29

Substance: QALVTLEENAVIG [Peptidome.Bac 14]
- CCL2/MCP-1 [3]: 351.37
- CCL3/MIP-1α [3]: 23.58
- CCL4/MIP-1β [3]: 78.06
- CCL11/Eotaxin [3]: 0
- CCL19/MIP-3β [3]: 2.57
- CCL20/MIP-3α [3]: 4.22
- CD40 Ligand [3]: 666.28
- CXCL1/GROα [3]: 68.11
- CXCL2/GROβ [3]: 60.34
- CXCL8/IL-8 [3]: 917.52
- CXCL10/IP-10 [3]: 111.72
- Flt-3 Ligand [3]: 48.51
- GM-CSF [3]: 38.36
- Granzyme B [3]: 0
- IFN-α [3]: 0
- IFN-γ [3]: 8.17
- IL-1rα [3]: 700.66
- IL-1α [3]: 0
- IL-1β [3]: 0
- IL-2 [3]: 2.34
- IL-3 [3]: 0.97
- IL-4 [3]: 0
- IL-5 [3]: 0
- IL-6 [3]: 110.14
- IL-7 [3]: 0.64
- IL-10 [3]: 11.57
- IL-12p70 [3]: 0
- IL-13 [3]: 23.19
- IL-15 [3]: 0.56
- IL-17A [3]: 0
- IL-17E/IL-25 [3]: 0
- IL-33 [3]: 4.57
- RANTES [3]: 0
- TNF-α [3]: 26.86

Substance: LYEFNHSPGF [HGM7, human gut microbiota peptide]
- Proliferation (SI) of sorted CD4+ TILs ([2]; replicate 1): 2.804
- Proliferation (SI) of sorted CD4+ TILs ([2]; replicate 2): 1.758
- Proliferation (SI) of sorted CD4+ TILs ([2]; replicate 3): 3.368

Substance: QLEFNHAIAS [HB2, UniProt bacteria database peptide]
- Proliferation (SI) of sorted CD4+ TILs ([2]; replicate 1): 1.556
- Proliferation (SI) of sorted CD4+ TILs ([2]; replicate 2): 1.363
- Proliferation (SI) of sorted CD4+ TILs ([2]; replicate 3): 1.455

Substance: AGPVVAAAVILKEDC [Peptidome.Bac 7]
- CCL2/MCP-1 [3]: 11.43
- CCL3/MIP-1α [3]: 1
- CCL4/MIP-1β [3]: 0
- CCL11/Eotaxin [3]: 0
- CCL19/MIP-3β [3]: 2.91
- CCL20/MIP-3α [3]: 3.7
- CD40 Ligand [3]: 994.39
- CXCL1/GROα [3]: 4.06
- CXCL2/GROβ [3]: 18.18
- CXCL8/IL-8 [3]: 0
- CXCL10/IP-10 [3]: 68.01
- Flt-3 Ligand [3]: 8.98
- GM-CSF [3]: 20.54
- Granzyme B [3]: 0
- IFN-α [3]: 0
- IFN-γ [3]: 18.67
- IL-1rα [3]: 382.82
- IL-1α [3]: 0
- IL-1β [3]: 0
- IL-2 [3]: 0
- IL-3 [3]: 10.62
- IL-4 [3]: 0
- IL-5 [3]: 0
- IL-6 [3]: 16.87
- IL-7 [3]: 1.18
- IL-10 [3]: 11.57
- IL-12p70 [3]: 2.8
- IL-13 [3]: 7.47
- IL-15 [3]: 0.56
- IL-17A [3]: 0
- IL-17E/IL-25 [3]: 0
- IL-33 [3]: 0
- RANTES [3]: 0
- TNF-α [3]: 9.2

Substance: LVDFFHSSAI [HGM32]
- recognition by TCC88, proliferation (in words) (TCC88 [4]): stimulatory

Substance: LWEFNNVSLA [HB4, UniProt bacteria database peptide]
- Proliferation (SI) of sorted CD4+ TILs ([2]; replicate 1): 1.585
- Proliferation (SI) of sorted CD4+ TILs ([2]; replicate 2): 1.003
- Proliferation (SI) of sorted CD4+ TILs ([2]; replicate 3): 1.832

Substance: Ac-VFDFNHSAIK-NH2 [HGM62]
- Proliferation (SI) of sorted CD4+ TILs ([2]; replicate 1): 1.423
- Proliferation (SI) of sorted CD4+ TILs ([2]; replicate 2): 1.043
- Proliferation (SI) of sorted CD4+ TILs ([2]; replicate 3): 2.568

Substance: LLDFNHSMVN [HGM26, human gut microbiota peptide]
- Proliferation (SI) of sorted CD4+ TILs ([2]; replicate 1): 1.889
- Proliferation (SI) of sorted CD4+ TILs ([2]; replicate 2): 1.31
- Proliferation (SI) of sorted CD4+ TILs ([2]; replicate 3): 1.491

Substance: Ac-KEDMSVPLIKSIRK-NH2 [Pep-bac10]
- SI: TCC2D3 (TCC2D3): 2.2
